Data published in PMC11302729, “Repurposing Hsp90 inhibitors as antimicrobials targeting two-component systems identifies compounds leading to loss of bacterial membrane integrity” (Microbiology Spectrum, 2024).

How the values were obtained:
S. aureus PhoR = S. aureus PhoR (Staphylococcus aureus, UniProt Q2FXN7); experiment: HK autophosphorylation inhibition, PhoR; format: biochemical; settings: ± SD, n = 2; 10 mM ATP
Experimental: Cytoplasmic domains from S. aureus PhoR and E. coli EnvZ as well the CA domain of Thermotoga maritima CheA were cloned in pNIC28-Bsa4 ([54]) plasmid containing His6-tag expressed in E. coli RIL and purified as previously described ([21], [55], [56]) using His-affinity and size exclusion chromatography. Briefly, E. coli RIL strains carrying the appropriate plasmid were grown in 1 L Luria broth (LB) (Merck Millipore) supplemented with kanamycin (100 µg/mL) with shaking (200 r.p.m.) at 37°C. When OD600 reached 0.5, 1 mM isopropyl-ß-D-1-thiogalactopyranoside (IPTG) was added to induce protein expression and cells were grown for 3 more hours. Cells were harvested by centrifugation (4,000 g, 4°C), resuspended in 40 mL buffer A (50 mM Tris-HCl pH 8.0, 0.5 M NaCl, 10% glycerol, and 1 mM phenylmethanesulfonyl fluoride), sonicated (4°C, 5 min with pulses of 15 sec at intervals of 1 min), and centrifuged (11,000 g, 4°C, 60 min). Supernatant was passed through a 5-mL HisTrap HP column (GE Healthcare) equilibrated in buffer A using the AKTA system (GE Healthcare). His-column was washed with buffer A (80 mL), and a linear gradient of imidazole (range 0 to 0.25 M) in buffer A was applied. The purest fractions evaluated by SDS-PAGE were collected, concentrated by ultrafiltration in a Amicon Ultra-15 (10- or 30-kDa exclusion) (Merck Millipore), and further purified by gel filtration using Superdex 200 column (GE Healthcare), equilibrated in buffer B (50 mM TrisHCl, pH 8.0, 0.2 M NaCl, and 5% glycerol). Purified proteins were then concentrated using ultrafiltration and stored at −80°C.
Autophosphorylation inhibition assays were performed in kinase assay buffer [100 mM Tris-HCl (pH 8.0), 5 mM MgCl2, 10 mM DTT], containing 5 µg of purified HK and 10 mM ATP for 30 min at 25°C. The reaction was stopped by adding gel loading buffer containing 16% SDS before loading the reaction on a 12% SDS-PAGE. […] The phosphorylated histidine was detected by western blotting by then incubating the membrane for 60 min with 1:1,000 anti-N1-phosphohistidine antibody (Merck Millipore) in TBS-T followed by a washing step for 30 min with TBS-T and a final 60-min incubation with 1:10,000 horseradish […] anti-rabbit IgG (Promega) in TBS-T. Chemiluminescent reaction was measured using Pierce ECL immunoblotting substrate (Thermo Scientific) in a LAS 3000 image analyzer (Fujifilm Life Science, Tokyo, Japan) followed by densitometric analysis using Multi Gauge image-analysis software (Fujifilm Life Science, Tokyo, Japan). The inhibitor concentrations required to halve the chemiluminescence intensity (IC50) were determined using Prism 4.1 (GraphPad Software, San Diego, CA, USA).

Hsp90α = target: T1, Hsp90α (Homo sapiens, UniProt P07900); experiment: Hsp90 fluorescence polarization assay (displacement of FITC-labeled geldanamycin); settings: compound concentration that decreases geldanamycin binding by 50%
T1 construct: expression strains containing GST-Hsp90 N(9-236) plasmid (Addgene: 22481); host or cells: E. coli BL21(DE3)
Experimental: The compounds were tested for inhibition of HK autophosphorylation in vitro. Of the 24 derivatives, 6 inhibited in vitro autophosphorylation of E. coli EnvZ at a concentration of 2 mM. […] Each compound has similar IC50 values for PhoR and EnvZ, indicating good potential for polypharmacology. We discounted the notion that DPP-induced aggregation of HKs was the reason for inhibiting autophosphorylation using native gel protein electrophoresis of HK proteins with and without DPPs (data not shown). We also investigated if the four DPP inhibiting HK autophosphorylation would also bind to Hsp90α in a fluorescence polarization assay. In this assay, inhibitors were tested for their ability to displace FITC-labeled geldanamycin (a well-known Hsp90 inhibitor) from the ATP pocket ([40]). All the compounds tested displaced FITC-labeled geldanamycin with IC50s in the nM range (Table 2).
The Hsp90α […] domain was purified as described by Goode et al. ([57]). E. coli BL21(DE3) expression strains containing GST-Hsp90 N(9-236) plasmid (Addgene: 22481) were grown in 1 L LB media supplemented with 100 µg/mL ampicillin at 25°C and shaking (200 r.p.m.) to OD600 0.5, and protein expression was induced by the addition of 1 mM IPTG, and the culture was grown at 25°C and shaking (200 r.p.m.) overnight. Cells were then pelleted (4,000 g, 4°C), resuspended in 40 mL buffer A2 (50 mM Tris-HCl pH 8.0, 0.5 M NaCl, and 1 mM phenylmethanesulfonyl fluoride), sonicated (4°C, 5 min with pulses of 15 sec at intervals of 1 min), and centrifuged (11,000 g, 4°C, 60 min). Supernatant was passed through a 5-mL Glutathione Sepharose 4B (GE Healthcare) equilibrated with buffer A2 using an AKTA system (GE Healthcare). Column was washed using buffer A2, and a linear gradient of glutathione (0–0.25M) in buffer A2 was applied. Fractions containing Hsp90α were collected, mixed, and concentrated by ultrafiltration.
Competitive binding of inhibitors to Hsp90 was measured by fluorescence polarization assay as previously reported ([58]). Inhibitors were assayed in different concentrations (range 0–1,000 µM) in a Nunc black, low binding 384-well plate (Thermo Scientific). Each reaction was prepared in reaction mix (100 mM Tris-Cl, pH 7.4, 20 mM KCl, 6 mM MgCl2, 2 mM DTT, and 0.1 mg/mL bovine serum albumin) in a final volume of 50 µL containing 350 nM Hsp90 and 100 nM geldanamycin FITC labeled (BPS Bioscience, San Diego, CA, USA) and the inhibitor in the correspondent concentration. Blank control containing no enzyme and no geldanamycin, enzyme-positive control containing no inhibitor, and enzyme-negative control containing no Hsp90 were included. Fluorescence polarization was then measured using Tecan SPARK (Tecan, Grödig, Austria) at wavelengths λex = 485 nm and λem = 530 nm.

S. aureus PhoR, sequence (Q2FXN7 entry or part of it): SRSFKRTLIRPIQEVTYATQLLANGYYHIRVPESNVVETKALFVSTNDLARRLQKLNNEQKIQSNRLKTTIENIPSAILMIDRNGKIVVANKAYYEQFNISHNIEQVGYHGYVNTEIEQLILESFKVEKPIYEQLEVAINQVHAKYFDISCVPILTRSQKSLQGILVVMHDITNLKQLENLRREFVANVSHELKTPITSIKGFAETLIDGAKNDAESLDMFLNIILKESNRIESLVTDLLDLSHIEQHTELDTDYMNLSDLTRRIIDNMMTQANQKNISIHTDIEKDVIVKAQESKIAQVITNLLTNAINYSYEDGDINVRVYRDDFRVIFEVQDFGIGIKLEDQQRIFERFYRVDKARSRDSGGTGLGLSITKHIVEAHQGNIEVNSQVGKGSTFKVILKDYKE

Row | Compound | IC50 (S. aureus PhoR) [µM] | IC50 (Hsp90α) [nM]
1 | COc1ccc(-c2c(C(F)(F)F)n[nH]c2-c2ccc(O)cc2O)cc1 [DPP-12] | 328 ± 4.1 | 574
2 | COc1ccc(-c2c(C(F)(F)F)n[nH]c2-c2ccc(OC)cc2O)cc1 [DPP-13] | 89 ± 6.9 | 838
3 | Oc1ccc(-c2n[nH]c(C(F)(F)F)c2-c2ccc(Cl)cc2)c(O)c1 [DPP-5] | 95 ± 5.6 | 496
4 | COc1ccc(-c2[nH]nc(C(F)(F)F)c2-c2ccc(Cl)cc2)c(O)c1 [DPP-6] | 55 ± 3.8 | 798
